According to patent US10913727B2, “Modulators of the integrated stress pathway” (Calico Life Sciences LLC, priority 2016, dated 2021):

What follows are compounds tested on HEK293T cells carrying the ATF4 luciferase reporter (assay: ATF4-Luc assay, in vitro model of Vanishing Cell White Matter Disease (VWMD)). Conditions: Homo sapiens, HEK-293T, 1 μg/mL tunicamycin, 7 hours, One Glo luminescence.
Format: cell-based
In short: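 Reporter cells were stably generated by retroviral transduction and puromycin selection, then seeded at 30,000 cells/well. Next day, cells received 1 μg/mL tunicamycin with 200 nM test compound for 7 h, and luciferase luminescence was read with a one-step reagent. Values reported as EC50.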

Compared with Cn1nc(C(=O)NC23CC(NC(=O)COc4ccc(Cl)c(F)c4)(C2)C3)cc1-c1ccccc1 [Compound 345, N-{3-[2-(4-chloro-3-fluorophenoxy)acetamido]bicyclo[1.1.1]pentan-1-yl}-1-methyl-5-phenyl-1H-pyrazole-3-carboxamide], O=C(COc1ccc(Cl)c(F)c1)NC12CC(NC(=O)c3ccc(-n4cncn4)cc3)(C1)C2 [Compound 783, N-{3-[2-(4-chloro-3-fluorophenoxy)acetamido]bicyclo[1.1.1]pentan-1-yl}-4-(1H-1,2,4-triazol-1-yl)benzamide] is higher in EC50: 50 to 250 nM for the first, greater than 2000 nM for the second.

First: COC1CN(c2ccnc(C(=O)NC34CC(NC(=O)COc5ccc(Cl)c(F)c5)(C3)C4)c2)C1 [Compound 190, N-{3-[2-(4-chloro-3-fluorophenoxy)acetamido]bicyclo[1.1.1]pentan-1-yl}-4-(3-methoxyazetidin-1-yl)pyridine-2-carboxamide]
Second: CCOC(=O)c1ccnc(C(=O)NC23CC(NC(=O)COc4ccc(Cl)c(F)c4)(C2)C3)c1 [Compound 204, ethyl 2-({3-[2-(4-chloro-3-fluorophenoxy)acetamido]bicyclo[1.1.1]pentan-1-yl}carbamoyl)pyridine-4-carboxylate]
The EC50 of the first is higher: 250 to 1000 nM for the first, 50 to 250 nM for the second. The second is the more potent here.

Compared with COc1nc(C)c(C(=O)NC23CC(NC(=O)COc4ccc(Cl)c(F)c4)(C2)C3)s1 [Compound 872, N-{3-[2-(4-chloro-3-fluorophenoxy)acetamido]bicyclo[1.1.1]pentan-1-yl}-2-methoxy-4-methyl-1,3-thiazole-5-carboxamide], Cc1nc(C(=O)NC23CC(NC(=O)COc4ccc(Cl)c(F)c4)(C2)C3)c(C)o1 [Compound 795, N-{3-[2-(4-chloro-3-fluorophenoxy)acetamido]bicyclo[1.1.1]pentan-1-yl}-2,5-dimethyl-1,3-oxazole-4-carboxamide] is higher in EC50: 50 to 250 nM for the first, greater than 2000 nM for the second.

Compared with Cc1cncc(C(=O)NC23CC(NC(=O)COc4ccc(Cl)c(Cl)c4)(C2)C3)c1 [Compound 645, N-{3-[2-(3,4-dichlorophenoxy)acetamido]bicyclo[1.1.1]pentan-1-yl}-5-methylpyridine-3-carboxamide], Cc1cccnc1C(=O)NC12CC(NC(=O)COc3ccc(Cl)c(Cl)c3)(C1)C2 [Compound 739, N-{3-[2-(3,4-dichlorophenoxy)acetamido]bicyclo[1.1.1]pentan-1-yl}-3-methylpyridine-2-carboxamide] is higher in EC50: 50 to 250 nM for the first, greater than 2000 nM for the second. The first is the more potent here.

O=C(COc1ccc2c(c1)OC(F)(F)O2)NC12CC(NC(=O)c3cnc(C4CC4)o3)(C1)C2 [Compound 717, 2-cyclopropyl-N-(3-{2-[(2,2-difluoro-2H-1,3-benzodioxol-5-yl)oxy]acetamido}bicyclo[1.1.1]pentan-1-yl)-1,3-oxazole-5-carboxamide] and Cc1cc(C(=O)NC23CC(NC(=O)COc4ccc5c(c4)OC(F)(F)O5)(C2)C3)n(C)n1 [Compound 442, N-(3-{2-[(2,2-difluoro-2H-1,3-benzodioxol-5-yl)oxy]acetamido}bicyclo[1.1.1]pentan-1-yl)-1,3-dimethyl-1H-pyrazole-5-carboxamide] fall in the same range of EC50: 250 to 1000 nM for the first, 250 to 1000 nM for the second.

Compared with O=C(COc1ccc(Cl)c(F)c1)NC12CC(NC(=O)c3ncccc3Cl)(C1)C2 [Compound 899, 3-chloro-N-{3-[2-(4-chloro-3-fluorophenoxy)acetamido]bicyclo[1.1.1]pentan-1-yl}pyridine-2-carboxamide], CCOc1ccc(C(=O)NC23CC(NC(=O)COc4ccc(Cl)c(F)c4)(C2)C3)cc1 [Compound 351, N-{3-[2-(4-chloro-3-fluorophenoxy)acetamido]bicyclo[1.1.1]pentan-1-yl}-4-ethoxybenzamide] is lower in EC50: 250 to 1000 nM for the first, 50 to 250 nM for the second.

First: O=C(COc1ccc(Cl)cc1)NC12CC(Nc3nc(-c4ccc(Cl)cc4)no3)(C1)C2 [Compound 284, 2-(4-chlorophenoxy)-N-(3-{[3-(4-chlorophenyl)-1,2,4-oxadiazol-5-yl]amino}bicyclo[1.1.1]pentan-1-yl)acetamide]
Second: O=C(COc1ccc(Cl)c(F)c1)NC12CC(NC(=O)c3ccc(Cn4cncn4)cc3)(C1)C2 [Compound 849, N-{3-[2-(4-chloro-3-fluorophenoxy)acetamido]bicyclo[1.1.1]pentan-1-yl}-4-[(1H-1,2,4-triazol-1-yl)methyl]benzamide]
The EC50 of the first is lower: 50 to 250 nM for the first, 1000 to 2000 nM for the second. The first is the more potent here.

CCCc1ncc(C(=O)NC23CC(NC(=O)COc4ccc(Cl)c(F)c4)(C2)C3)s1 [Compound 293, N-{3-[2-(4-chloro-3-fluorophenoxy)acetamido]bicyclo[1.1.1]pentan-1-yl}-2-propyl-1,3-thiazole-5-carboxamide] and CCc1csc(C(=O)NC23CC(NC(=O)COc4ccc(Cl)c(F)c4)(C2)C3)n1 [Compound 919, N-{3-[2-(4-chloro-3-fluorophenoxy)acetamido]bicyclo[1.1.1]pentan-1-yl}-4-ethyl-1,3-thiazole-2-carboxamide] cannot be ordered by EC50: less than 50 nM for the first, less than 50 nM for the second.

Going from Cc1cc(C(=O)NC23CCC(NC(=O)COc4ccc(Cl)c(F)c4)(CC2)[C@@H](O)C3)on1 (single isomer, unassigned) [Compound 358] to Cc1nocc1C(=O)NC12CCC(NC(=O)COc3ccc(Cl)c(F)c3)(CC1)C(O)C2 (stereo not drawn) [Compound 605, N-{4-[2-(4-chloro-3-fluorophenoxy)acetamido]-3-hydroxybicyclo[2.2.2]octan-1-yl}-3-methyl-1,2-oxazole-4-carboxamide], the EC50 rises from less than 50 nM to greater than 2000 nM. The first is the more potent here.

First: COCc1nc(C(=O)NC23CCC(NC(=O)COc4ccc(Cl)c(F)c4)(CC2)C(O)C3)cs1 (stereo not drawn) [Compound 523, N-{4-[2-(4-chloro-3-fluorophenoxy)acetamido]-3-hydroxybicyclo[2.2.2]octan-1-yl}-2-(methoxymethyl)-1,3-thiazole-4-carboxamide]
Second: Cn1nc(C(F)F)cc1C(=O)NC12CCC(NC(=O)COc3ccc(Cl)c(F)c3)(CC1)C[C@@H]2O [Compound 413, N-{(2S)-4-[2-(4-chloro-3-fluorophenoxy)acetamido]-2-hydroxybicyclo[2.2.2]octan-1-yl}-3-(difluoromethyl)-1-methyl-1H-pyrazole-5-carboxamide]
The EC50 of the first is higher: 50 to 250 nM for the first, less than 50 nM for the second. The second is the more potent here.

First: Cc1cnc(C(=O)NC23CCC(NC(=O)COc4ccc5c(c4)OC(F)(F)O5)(CC2)[C@@H](O)C3)cn1 [Compound 638, N-[(3S)-4-{2-[(2,2-difluoro-2H-1,3-benzodioxol-5-yl)oxy]acetamido}-3-hydroxybicyclo[2.2.2]octan-1-yl]-5-methylpyrazine-2-carboxamide]
Second: O=C(COc1ccc(Cl)c(F)c1)NC12CCC(NC(=O)c3ccc(F)cc3)(CC1)[C@@H](O)C2 [Compound 489, N-{(2S)-4-[2-(4-chloro-3-fluorophenoxy)acetamido]-2-hydroxybicyclo[2.2.2]octan-1-yl}-4-fluorobenzamide]
The EC50 of the first is higher: 250 to 1000 nM for the first, 50 to 250 nM for the second.

Compared with CC(=O)NCc1ccnc(C(=O)NC23CC(NC(=O)COc4ccc(Cl)c(F)c4)(C2)C3)c1 [Compound 194, 4-(acetamidomethyl)-N-{3-[2-(4-chloro-3-fluorophenoxy)acetamido]bicyclo[1.1.1]pentan-1-yl}pyridine-2-carboxamide], O=C(CCCc1cccc(Cl)c1)NC12CC(NC(=O)c3cnc(C(F)F)cn3)(C1)C2 [Compound 946, N-{3-[4-(3-chlorophenyl)butanamido]bicyclo[1.1.1]pentan-1-yl}-5-(difluoromethyl)pyrazine-2-carboxamide] is higher in EC50: 50 to 250 nM for the first, greater than 2000 nM for the second. The first is the more potent here.
